Results taken from patent publication US8697730B2, “5-lipoxygenase activating protein (FLAP) inhibitor” (Panmira Pharmaceuticals, LLC, priority 2007, dated 2014).
Where two headings read alike, the source gives them in different places.

What was measured:
pH solubility profile = format: physicochemical; settings: 25 °C, thermodynamic from solid
[1] = Phase 1 study in healthy human volunteers, plasma pharmacokinetics; format: in vivo; settings: for AUC(0-t): read-out: AUC0-24 (hr * mM) AVE ± SD; for Tmax: read-out: Tmax (hr) AVE ± SD; for half-life: read-out: t1/2 (hr) AVE ± SD (converted)
Protocol: The study is divided into two phases (Single and Multiple Dose Phases).
One cohort in the Multiple Dose Phase receives twice daily dosing.
Placebo solution to match. The finished aqueous solution is prepared in the clinical study site pharmacy within 24 hours of dosing. The study drug is stored at room temperature between 15-30° C. (59-86° F.) and protected from light.
Route of Administration: All doses are administered orally with approximately 100 mL of water rinse. Subjects are fasted for at least 8 hours prior to dosing and for 2 hours after dosing.
Obtain pre-dose fasting blood samples for hematology determinations. Obtain pre-dose fasting blood samples for serum chemistry determinations. Obtain pre-dose blood samples (5 mL EDTA and 4 mL heparinized) for baseline PK and LTB4. Collect ‘spot’ urine prior to study drug administration for baseline (pre-dose) LTE4. Administer study drug. […] Collect blood samples (2 mL heparinized) for LTB4 at 0.5, 1, 2, 3, 4, 6, 8, and 12 hours. Collect urine for LTE4 for the following separate intervals: 0-3, 3-6, 6-9, and 9-12 hours. For twice daily dosing group (if conducted): administer study drug 12 hours±30 minutes after prior dose, preceded by ≧2 hours fast. […]

[2] = in vivo, po, 250 mg/kg
Protocol: Twenty-four hours following the final administration mice were placed into an enclosed Plexiglas chamber and exposed to CO2 for a period of 1-2 minutes or until breathing ceased. They were then removed and blood was taken via a cardiac puncture and cervical dislocation was performed. Subjects were next placed in a supine position and a midline incision made. All organs were inspected and the livers removed by careful dissection. Liver weights were recorded as well as any gross abnormalities.

CYP2C9 = CYP2C9 (Homo sapiens, UniProt P11712); test: biochemical
CYP2C9, sequence (P11712 whole entry): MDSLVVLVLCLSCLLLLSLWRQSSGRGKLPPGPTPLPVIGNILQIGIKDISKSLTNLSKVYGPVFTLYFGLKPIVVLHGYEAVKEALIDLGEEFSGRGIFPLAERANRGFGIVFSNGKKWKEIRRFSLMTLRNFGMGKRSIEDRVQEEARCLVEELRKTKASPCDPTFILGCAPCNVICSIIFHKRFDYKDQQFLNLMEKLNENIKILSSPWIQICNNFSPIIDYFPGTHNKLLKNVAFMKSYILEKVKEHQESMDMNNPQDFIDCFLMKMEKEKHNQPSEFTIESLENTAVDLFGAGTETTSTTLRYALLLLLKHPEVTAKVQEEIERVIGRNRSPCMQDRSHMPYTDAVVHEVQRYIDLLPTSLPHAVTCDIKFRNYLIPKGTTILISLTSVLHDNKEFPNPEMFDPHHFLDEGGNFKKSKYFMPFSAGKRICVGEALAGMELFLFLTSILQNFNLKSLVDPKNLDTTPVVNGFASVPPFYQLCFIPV

[3] = both sexes, human, single dose 50 mg, oral solution, fasted healthy subjects
[4] = both sexes, human, single dose 150 mg, oral solution, fasted healthy subjects
[5] = both sexes, human, single dose 300 mg, oral solution, fasted healthy subjects
[6] = both sexes, human, single dose 600 mg, oral solution, fasted healthy subjects
[7] = both sexes, human, single dose 1000 mg, oral solution, fasted healthy subjects
[8] = male, human, multiple dose phase, Day 1, 150 mg, oral solution
[9] = male, human, multiple dose phase, Day 1, 450 mg, oral solution
[10] = male, human, multiple dose phase, Day 1, 1000 mg, oral solution

solubility (pH solubility profile; aqueous medium, aqueous buffer, about pH 7, read-out: aqueous solubility): < 0.005 mg/mL | solubility (pH solubility profile; basic media, pH 10, aqueous buffer, read-out: solubility in basic media): > 70 mg/mL | AUC(0-t) [1, 3]: 5.4 ± 2.5 µM·h | Cmax ([1]; both sexes, human, single dose 50 mg, oral solution, fasted healthy subjects, read-out: Cmax (mM) AVE ± SD): 0.00065 ± 0.00032 mM | Tmax [1, 3]: 3 ± 0.8 h | half-life [1, 3]: 7.7 ± 0.3 h | AUC(0-t) [1, 4]: 15.9 ± 8.7 µM·h | Cmax ([1]; both sexes, human, single dose 150 mg, oral solution, fasted healthy subjects, read-out: Cmax (mM) AVE ± SD): 0.0018 ± 0.0011 mM | Tmax [1, 4]: 2.5 ± 0.5 h | half-life [1, 4]: 10 ± 2 h | AUC(0-t) [1, 5]: 25.8 ± 7.4 µM·h | Cmax ([1]; both sexes, human, single dose 300 mg, oral solution, fasted healthy subjects, read-out: Cmax (mM) AVE ± SD): 0.0031 ± 0.0014 mM | Tmax [1, 5]: 3.2 ± 1 h | half-life [1, 5]: 12.3 ± 3.1 h | AUC(0-t) [1, 6]: 54 ± 35.3 µM·h | Cmax ([1]; both sexes, human, single dose 600 mg, oral solution, fasted healthy subjects, read-out: Cmax (mM) AVE ± SD): 0.0081 ± 0.0053 mM | Tmax [1, 6]: 2 ± 0.6 h | half-life [1, 6]: 8.8 ± 1.3 h | AUC(0-t) [1, 7]: 85 ± 44 µM·h | Cmax ([1]; both sexes, human, single dose 1000 mg, oral solution, fasted healthy subjects, read-out: Cmax (mM) AVE ± SD): 0.013 ± 0.005 mM | Tmax [1, 7]: 3 ± 0.8 h | half-life [1, 7]: 7.6 ± 4.6 h | Cmax ([1]; both sexes, oral, profile that may be obtained from a single dose administration to a human, dose not stated, read-out: Cmax): ≤ 0.005 mM | AUC(0-t) [1, 8]: 11.3 ± 5 µM·h | Cmax ([1]; male, human, multiple dose phase, Day 1, 150 mg, oral solution, read-out: Cmax (mM) AVE ± SD): 0.0019 ± 0.0011 mM | Tmax [1, 8]: 2.5 ± 0.5 h | half-life [1, 8]: 9.2 ± 2 h | AUC(0-t) [1, 9]: 34.2 ± 7.9 µM·h | Cmax ([1]; male, human, multiple dose phase, Day 1, 450 mg, oral solution, read-out: Cmax (mM) AVE ± SD): 0.0047 ± 0.0022 mM | Tmax [1, 9]: 2.7 ± 0.5 h | half-life [1, 9]: 13.2 ± 3.9 h | AUC(0-t) [1, 10]: 127 ± 50 µM·h | Cmax ([1]; male, human, multiple dose phase, Day 1, 1000 mg, oral solution, read-out: Cmax (mM) AVE ± SD): 0.0144 ± 0.0051 mM | Tmax [1, 10]: 2.3 ± 0.5 h | half-life [1, 10]: 11.2 ± 5.1 h | liver weight alteration ([2]; female, CD-1, mouse, 4 days): 9.1% | IC50 (CYP2C9): ≥ 50 µM
Structure (SMILES): COc1ccc(-c2ccc(Cn3c(CC(C)(C)C(=O)O)c(SC(C)(C)C)c4cc(OCc5ccccn5)ccc43)cc2)cn1 [sodium 3-[5-(pyridin-2-ylmethoxy)-3-(2-methyl-2-propylthio)-1-[4-(2-methoxypyridin-5-yl)benzyl]-indol-2-yl]-2,2-dimethyl-propionate]
necropsy findings ([2]; mouse): no gross abnormalities
